Experimental findings from patent US20260256925A1, “INDAZOLE DERIVATIVES AS ESTROGEN RECEPTOR DEGRADERS” (REGENTS OF THE UNIVERSITY OF MICHIGAN, priority 2022, published 2026) are described below.

A value given as a limit tells only on which side of the number the result lay.

Tested on in the first assay: not listed separately
The assay is described as follows: Cell growth assay, WST-8 (compounds B1-B126). The assay is classed as cell-based. The settings on record: 96 h; T47D cell line, WST-8, 4 days; read-out: Cell growth inhibition in T47D cell line IC50. As to the method: Cell Growth Assay. The cells are seeded at certain concentration (e.g., at 1500/well) in multi-well plates overnight. Cells are subsequently treated with the compounds. A certain period of time (e.g., 4 days) after the compound treatment, 10% WST-8 reagent is added to the culture medium and incubate under certain condiction (e.g., in a CO2 incubator at 37° C. for 2.5 hours). The absorbance is measured on each sample using a microplate reader at certain wavelength (e.g., 450 nm). The relative absorbance is calculated against the vehicle control from three individually repeats.
Cell Growth Assay. The cells were seeded at 1500/well in 96 well plates overnight. One day after the seeding, they were treated with indicated doses of compounds respectively. 4 days after the compound treatment, 10% WST-8 reagent was added to the culture medium and incubate in a CO2 incubator at 37° C. for 2.5 hours. Before reading, the plate was mixed gently on an orbital shaker for one minute to ensure homogeneous distribution of color. The absorbance was measured of each sample using a microplate reader at a wavelength of 450 nm. The relative absorbance was calculated against the vehicle control from three individually repeats.
On the technique in general: Tetrazolium dyes change colour on reduction, which living cells bring about.
`C[C@@H]1Cc2c(ccc3[nH]ncc23)[C@@H](c2c(F)cc(N3CCC4(CCN(C(=O)CN5Cc6cc7c(cc6C5)C(=O)N(C5CCC(=O)NC5=O)C7=O)CC4)CC3)cc2F)N1CC(F)F` (stereo partly drawn) [Compound B15, 6-(2-(9-(4-((6S,8R)-7-(2,2-difluoroethyl)-8-methyl-6,7,8,9-tetrahydro-3H-pyrazolo[4,3-f]isoquinolin-6-yl)-3,5-difluorophenyl)-3,9-diazaspiro[5.5]undecan-3-yl)-2-oxoethyl)-2-(2,6-dioxopiperidin-3-yl)-6,7-dihydropyrrolo[3,4-f]isoindole-1,3(2H,5H)-dione]: the IC50 (in general, the midpoint of a concentration-inhibition curve) was less than 1 nM.

In the case of `C[C@@H]1Cc2c(ccc3[nH]ncc23)[C@@H](c2c(F)cc(N3CCC(CN4CCC5(CCOc6c5ccc5c6CN(C6CCC(=O)NC6=O)C5=O)CC4)CC3)cc2F)N1CC(F)F` (stereo partly drawn) [Compound B47, 3-(1-((1-(4-((6S,8R)-7-(2,2-difluoroethyl)-8-methyl-6,7,8,9-tetrahydro-3H-pyrazolo[4,3-f]isoquinolin-6-yl)-3,5-difluorophenyl)piperidin-4-yl)methyl)-7′-oxo-2′,3′,7′,9′-tetrahydro-8′H-spiro[piperidine-4,4′-pyrano[2,3-e]isoindol]-8′-yl)piperidine-2,6-dione], the IC50 was less than 1 nM.

As for `C[C@@H]1Cc2c(ccc3[nH]ncc23)[C@@H](c2ccc(N3CCC4(CCN(C(=O)CN5Cc6cc7c(cc6C5)C(=O)N(C5CCC(=O)NC5=O)C7)CC4)CC3)cn2)N1CC(F)(F)F` (stereo partly drawn) [Compound B74, 3-(6-(2-(9-(6-((6S,8R)-8-methyl-7-(2,2,2-trifluoroethyl)-6,7,8,9-tetrahydro-3H-pyrazolo[4,3-f]isoquinolin-6-yl)pyridin-3-yl)-3,9-diazaspiro[5.5]undecan-3-yl)-2-oxoethyl)-1-oxo-3,5,6,7-tetrahydropyrrolo[3,4-f]isoindol-2(1H)-yl)piperidine-2,6-dione], the IC50 was in the range of 1 to 10 nM.

The next assay deals with T1, ER (Homo sapiens, UniProt P03372).
T1 construct: endogenous in cells; probably T47D or MCF-7
T1 sequence (P03372 1-595): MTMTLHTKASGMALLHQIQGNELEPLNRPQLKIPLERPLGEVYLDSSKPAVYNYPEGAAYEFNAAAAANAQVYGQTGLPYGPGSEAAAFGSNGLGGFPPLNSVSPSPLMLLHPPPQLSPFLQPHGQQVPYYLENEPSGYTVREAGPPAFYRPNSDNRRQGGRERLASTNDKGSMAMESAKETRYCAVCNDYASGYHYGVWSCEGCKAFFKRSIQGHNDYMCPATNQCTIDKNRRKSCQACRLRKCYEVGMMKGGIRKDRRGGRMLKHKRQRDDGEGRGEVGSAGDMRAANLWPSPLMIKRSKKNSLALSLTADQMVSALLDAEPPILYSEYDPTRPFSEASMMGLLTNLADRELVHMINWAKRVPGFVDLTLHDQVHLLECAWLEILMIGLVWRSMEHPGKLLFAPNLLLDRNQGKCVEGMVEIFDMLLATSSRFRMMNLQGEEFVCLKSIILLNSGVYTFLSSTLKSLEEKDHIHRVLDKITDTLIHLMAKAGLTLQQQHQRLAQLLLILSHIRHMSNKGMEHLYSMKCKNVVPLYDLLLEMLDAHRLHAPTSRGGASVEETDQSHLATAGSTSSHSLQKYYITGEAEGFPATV
The assay is described as follows: In-cell western blot analysis, relative ER percentage (compounds B1-B126). The assay is classed as cell-based. The following applies: ER degradation, 16 hours, read-out: ICW DC50. The protocol: In-cell western blot analysis. Cells are seeded in multi-well plates (e.g., at 40,000 or 10,000 cells/well). Diluted compounds at certain concentration are added (final 0.5% DMSO) and cells are incubated for a certain period of time (e.g., 16 hours). Formaldehyde (e.g., PBS: FA=9:1) is added and followed by washing with PBS. The cells are blocked with Licor blocking buffer (Li-Cor). The relative ER percentage in treated cells are obtained by comparing the values of treated wells to those in untreated and DMSO-treated wells as 100%.
In-cell western blot analysis. a. seed cells in black-sided/clear bottom 96- or 384-well plates at 40,000 or 10,000 cells/well, overnight; b. add diluted compounds (final 0.5% DMSO), 16 hours. […] RT 2h, gentle shaking. Negative control: cells plus secondary antibodies (no primary antibodies); e. wash×4 with PBS +0.05-0.1% Tween 20, gentel shaking; f. anti-rabbit-680 and anti-mouse-800 (both 1:1000 in LiCor block+0.05% Tween20, RT 1h, gentle shaking, no light. LI-COR: 0.2% to reduce background; g. wash×4 with PBS+0.05% Tween 20, gental shaking; h. add 100 μL or 25 μL of PBS to each well and read on CLX plate reader. The relative ER percentage in treated cells were obtained by comparing the values of treated wells to those in untreated and DMSO-treated wells as 100%.
On to “3-((R)-7-((7-(6-((6S,8R)-7-(2,2- difluoroethyl)-8-methyl-6,7,8,9- tetrahydro-3H-pyrazolo[4,3- f]isoquinolin-6-yl)pyridin-3-yl)-7- azaspiro[3.5]nonan-2-yl)mcthyl)-1- oxo-1,3,5,5a,6,7,8,9-octahydro-2H- pyrazino[1′,2′:4,5][1,4]oxazino[2,3- e]isoindol-2-yl)piperidine-2,6- dione [Compound B83]”, for which the 50% degradation concentration (DC50) – broadly, the concentration at which degradation of the target reaches its halfway point – is greater than 100 nM.

`C[C@@H]1Cc2c(ccc3[nH]ncc23)[C@@H](c2ccc(N3CCC4(CCN(CC(=O)N5Cc6cc7c(cc6C5)C(=O)N(C5CCC(=O)NC5=O)C7=O)CC4)CC3)cn2)N1CC(F)F` (stereo partly drawn) [Compound B50, 6-(2-(9-(6-((6S,8R)-7-(2,2-difluoroethyl)-8-methyl-6,7,8,9-tetrahydro-3H-pyrazolo[4,3-f]isoquinolin-6-yl)pyridin-3-yl)-3,9-diazaspiro[5.5]undecan-3-yl)acetyl)-2-(2,6-dioxopiperidin-3-yl)-6,7-dihydropyrrolo[3,4-f]isoindole-1,3(2H,5H)-dione]: the DC50 was greater than 100 nM.

On to `COc1cc(N2CCC3(CC2)CC(CN2CCC4(CC2)COc2c4ccc4c2CN(C2CCC(=O)NC2=O)C4=O)C3)ccc1[C@@H]1c2ccc3[nH]ncc3c2C[C@@H](C)N1CC(F)F` (stereo partly drawn) [Compound B56, 3-(1′-((7-(4-((6S,8R)-7-(2,2-difluoroethyl)-8-methyl-6,7,8,9-tetrahydro-3H-pyrazolo[4,3-f]isoquinolin-6-yl)-3-methoxyphenyl)-7-azaspiro[3.5]nonan-2-yl)methyl)-6-oxo-6,8-dihydro-2H,7H-spiro[furo[2,3-e]isoindole-3,4′-piperidin]-7-yl)piperidine-2,6-dione], for which the DC50 is greater than 100 nM.

On to `C[C@@H]1Cc2c(ccc3[nH]ncc23)[C@@H](c2c(F)cc(C3=CCC(C(=O)N4CCC(N5Cc6cc7c(cc6C5)C(=O)N(C5CCC(=O)NC5=O)C7=O)CC4)CC3)cc2F)N1CC(F)F` (stereo partly shown) [Compound B102], for which the DC50 was greater than 100 nM.

With `C[C@@H]1Cc2c(ccc3[nH]ncc23)[C@@H](c2cnc(N3CCC4(CC3)CC(CN3CCN5c6cc7c(cc6OC[C@@H]5C3)C(=O)N(C3CCC(=O)NC3=O)C7)C4)nc2)N1CC(F)(F)F` (stereo partly drawn) [Compound B113, 3-((S)-3-((7-(5-((6S,8R)-8-methyl-7-(2,2,2-trifluoroethyl)-6,7,8,9-tetrahydro-3H-pyrazolo[4,3-f]isoquinolin-6-yl)pyrimidin-2-yl)-7-azaspiro[3.5]nonan-2-yl)mcthyl)-8-oxo-1,2,3,4,4a,5,8,10-octahydro-9H-pyrazino[1′,2′:4,5][1,4]oxazino[2,3-f]isoindol-9-yl)piperidine-2,6-dione], the DC50 is less than 10 nM.

As for `C[C@H]1Cc2c(ccc3[nH]ncc23)[C@H](c2cnc(N3CCC4(CC3)CC(CN3CCN5c6cc7c(cc6OC[C@H]5C3)C(=O)N(C3CCC(=O)NC3=O)C7)C4)nc2)N1CC(F)(F)F` (stereo partly drawn) [Compound B118, 3-((R)-3-((7-(5-((6R,8S)-8-methyl-7-(2,2,2-trifluoroethyl)-6,7,8,9-tetrahydro-3H-pyrazolo[4,3-f]isoquinolin-6-yl)pyrimidin-2-yl)-7-azaspiro[3.5]nonan-2-yl)methyl)-8-oxo-1,2,3,4,4a,5,8,10-octahydro-9H-pyrazino[1′,2′:4,5][1,4]oxazino[2,3-f]isoindol-9-yl)piperidine-2,6-dione], the DC50 lay in the range of 10 to 100 nM.

`C[C@H]1Cc2c(ccc3[nH]ncc23)[C@H](c2ccc(N3CCC4(CC3)CC(CN3CCN(c5ccc(NC6CCC(=O)NC6=O)cc5F)CC3)C4)cn2)N1CC(F)(F)F` (stereo partly drawn) [Compound B120, 3-((3-fluoro-4-(4-((7-(6-((6R,8S)-8-methyl-7-(2,2,2-trifluoroethyl)-6,7,8,9-tetrahydro-3H-pyrazolo[4,3-f]isoquinolin-6-yl)pyridin-3-yl)-7-azaspiro[3.5]nonan-2-yl)methyl)piperazin-1-yl)phenyl)amino)piperidine-2,6-dione]: the DC50 was greater than 100 nM.

As to `C[C@H]1Cc2c(ccc3[nH]ncc23)[C@H](c2ccc(N3CC4(CCC(CN5CCN(c6ccc(NC7CCC(=O)NC7=O)cc6F)CC5)CC4)C3)cn2)N1CC(F)(F)F` (stereo partly drawn) [Compound B121, 3-((3-fluoro-4-(4-((2-(6-((6R,8S)-8-methyl-7-(2,2,2-trifluoroethyl)-6,7,8,9-tetrahydro-3H-pyrazolo[4,3-f]isoquinolin-6-yl)pyridin-3-yl)-2-azaspiro[3.5]nonan-7-yl)methyl)piperazin-1-yl)phenyl)amino)piperidine-2,6-dione], the DC50 is greater than 100 nM.

Take `C[C@H]1Cc2c(ccc3[nH]ncc23)[C@H](c2cnc(N3CCC4(CC3)CC(CN3CCN(c5ccc(NC6CCC(=O)NC6=O)cc5F)CC3)C4)nc2)N1CC(F)(F)F` (stereo partly drawn) [Compound B122, 3-((3-fluoro-4-(4-((7-(5-((6R,8S)-8-methyl-7-(2,2,2-trifluoroethyl)-6,7,8,9-tetrahydro-3H-pyrazolo[4,3-f]isoquinolin-6-yl)pyrimidin-2-yl)-7-azaspiro[3.5]nonan-2-yl)methyl)piperazin-1-yl)phenyl)amino)piperidine-2,6-dione]: the DC50 was greater than 100 nM.

Consider `C[C@H]1Cc2c(ccc3[nH]ncc23)[C@H](c2cnc(N3CC4(CCC(CN5CCN6c7ccc8c(c7OC[C@@H]6C5)CN([C@@H]5CCC(=O)NC5=O)C8=O)CC4)C3)nc2)N1CC(F)(F)F` [Compound B123, (R)-3-((S)-7-((2-(5-((6R,8S)-8-methyl-7-(2,2,2-trifluoroethyl)-6,7,8,9-tetrahydro-3H-pyrazolo[4,3-f]isoquinolin-6-yl)pyrimidin-2-yl)-2-azaspiro[3.5]nonan-7-yl)methyl)-1-oxo-1,3,5,5a,6,7,8,9-octahydro-2H-pyrazino[1′,2′:4,5][1,4]oxazino[2,3-e]isoindol-2-yl)piperidine-2,6-dione], for which the DC50 is less than 10 nM.
